Test results from patent US20230183292A1, “IMMUNOMODULATORS” (priority 2020, published 2023).
Starred links: 1 amine or outer side, 2 acyl side, 3 side chain; linkers in the order of their positions; H or OH if unused. Positions of bridges follow the written chain, without caps; N, C: chain ends. Non-standard residues stand in square brackets, D forms with d. Residues, ends and D or L forms follow the SMILES beside them. Groups on a side chain read outwards from the residue. *: point of attachment. X2 = C[C@H](CCC(=O)NCCCN(CCCCNC(=O)CC[C@@H](C)[C@@H]1CC[C@H]2[C@@H]3[C@H](O)C[C@@H]4C[C@H](O)CC[C@]4(C)[C@H]3C[C@H](O)[C@@]21C)*)[C@H]1CC[C@H]2[C@@H]3[C@H](O)C[C@@H]4C[C@H](O)CC[C@]4(C)[C@H]3C[C@H](O)[C@]12C; X26 = C[C@H](CCC(=O)O)[C@H]1CC[C@H]2[C@@H]3C(=O)C[C@@H]4CC(NCC[C@H](N[*:1])C(=O)[*:2])CC[C@]4(C)[C@H]3CC[C@]12C; X21 = CC[C@H]1[C@@H](O)[C@@H]2[C@H](CC[C@]3(C)[C@@H]([C@H](C)CCC(=O)*)CC[C@@H]23)[C@@]2(C)CC[C@@H](O)C[C@@H]12; X25 = C[C@H](CCC(=O)O)[C@H]1CC[C@H]2[C@@H]3C(=O)C[C@@H]4CC(NC[C@H](N[*:1])C(=O)[*:2])CC[C@]4(C)[C@H]3CC[C@]12C; X5 = CC(C)CCC[C@@H](C)[C@H]1CC[C@H]2[C@@H]3CC[C@H]4C[C@@H](NC[C@H](N[*:1])C(=O)[*:2])CC[C@]4(C)[C@H]3CC[C@]12C; Cholyl = C[C@H](CCC(=O)*)[C@H]1CC[C@H]2[C@@H]3[C@H](O)C[C@@H]4C[C@H](O)CC[C@]4(C)[C@H]3C[C@H](O)[C@]12C; X24 = C[C@H](CCC(=O)*)[C@H]1CC[C@H]2[C@@H]3[C@H](O)[C@H](O)[C@@H]4C[C@H](O)CC[C@]4(C)[C@H]3CC[C@]12C; X23 = C[C@H](CCC(=O)*)[C@H]1CC[C@H]2[C@@H]3C(=O)[C@H](O)[C@@H]4C[C@H](O)CC[C@]4(C)[C@H]3CC[C@]12C; Trp(1-CH2CO) = O=C([C@H](Cc1cn(CC(=O)[*:3])c2ccccc12)N[*:1])[*:2]; X27 = O=C(Cn1cc(C[C@H](N[*:1])C(=O)[*:2])c2ccccc21)Oc1ccccc1; Trp(1-CH2COOH) = N[C@@H](Cc1cn(CC(=O)O)c2ccccc12)C(=O)O; Hyp = O=C(O)[C@@H]1C[C@@H](O)CN1; X12 = O=c1c([*:1])c([*:2])c1=O; NMeNle = CCCC[C@H](NC)C(=O)O; NMeA = CN[C@@H](C)C(=O)O; Dab = NCC[C@H](N)C(=O)O; Dap = NC[C@H](N)C(=O)O

Biological target: T1, PD-1/PD-L1 (Homo sapiens, UniProt Q9NZQ7)
T1 construct: TVMV protease site (C); made in house; host or cells: HEK293T cells
T1 sequence (Q9NZQ7 18-239): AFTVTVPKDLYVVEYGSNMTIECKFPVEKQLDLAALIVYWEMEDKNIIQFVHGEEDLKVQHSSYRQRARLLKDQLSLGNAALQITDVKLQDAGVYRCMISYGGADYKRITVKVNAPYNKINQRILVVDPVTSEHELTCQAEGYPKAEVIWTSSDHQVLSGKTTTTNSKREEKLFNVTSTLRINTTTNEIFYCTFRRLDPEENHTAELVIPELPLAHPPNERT
Experiment: PD-1/PD-L1 Homogenous Time-Resolved Fluorescence (HTRF) binding assay
Conditions: HTRF IC50, PD-L1-His 10 nM, PD-1-Ig 20 nM
Text: The ability of the compounds of formula (I) to bind to PD-L1 was investigated using a PD-1/PD-L1 Homogenous Time-Resolved Fluorescence (HTRF) binding assay.
The interaction of PD-1 and PD-L1 can be assessed using soluble, purified preparations of the extracellular domains of the two proteins. The PD-1 and PD-L1 protein extracellular domains were expressed as fusion proteins with detection tags, for PD-1, the tag was the Fc portion of Immunoglobulin (PD-1-Ig) and for PD-L1 it was the 6 histidine motif (PD-L1-His). All binding studies were performed in an HTRF assay buffer consisting of dPBS supplemented with 0.1% […] bovine serum albumin and 0.05% (v/v) Tween-20. For the h/PD-L1-His binding assay, inhibitors were pre-incubated with PD-L1-His (10 nM final) for 15 m in 4 μl of assay buffer, followed by addition of PD-1-Ig (20 nM final) in 1 μl of assay buffer and further incubation for 15 m. HTRF detection was achieved using europium crypate-labeled anti-Ig (1 nM final) and allophycocyanin (APC) labeled anti-His (20 nM final). Antibodies were diluted in HTRF detection buffer and 5 μl was dispensed on top of the binding reaction. The reaction mixture was allowed to equilibrate for 30 minutes and the resulting signal (665 nm/620 nm ratio) was obtained using an EnVision fluorometer. Additional binding assays were established between the human proteins PD-1-Ig/PD-L2-His (20 & 5 nM, respectively) and CD80-His/PD-L1-Ig (100 & 10 nM, respectively).
Recombinant Proteins: Human PD-1 (25-167) with a C-terminal human Fc domain of immunoglobulin G (Ig) epitope tag [hPD-1 (25-167)-3S-IG] and human PD-L1 (18-239) with a C-terminal His epitope tag [hPD-L1(18-239)-TVMV-His] were expressed in HEK293T cells and purified sequentially by ProteinA affinity chromatography and size exclusion chromatography. Human PD-L2-His and CD80-His was obtained through commercial sources.
Table 1 lists the IC50 values for representative examples of this disclosure measured in the PD-1/PD-L1 Homogenous Time-Resolved Fluorescence (HTRF) binding assay.

Row | Compound | IC50 [nM]
1 | CCCC[C@H]1C(=O)N(C)[C@@H](CCCC)C(=O)N[C@@H](CC(C)C)C(=O)N[C@H](C(=O)NCC(N)=O)CSCC(=O)N[C@@H](Cc2ccc(O)cc2)C(=O)N(C)[C@@H](C)C(=O)N[C@@H](CC(N)=O)C(=O)N2CCC[C@H]2C(=O)N[C@@H](CNC(=O)CNC(=O)CC[C@@H](C)[C@H]2CC[C@H]3[C@@H]4[C@H](O)C[C@@H]5C[C@H](O)CC[C@]5(C)[C@H]4C[C@H](O)[C@]23C)C(=O)N[C@@H](CC(C)C)C(=O)N2C[C@H](O)C[C@H]2C(=O)N[C@@H](Cc2c[nH]c3ccccc23)C(=O)N[C@@H](CCNC(=O)CNC(=O)CC[C@@H](C)[C@H]2CC[C@H]3[C@@H]4[C@H](O)C[C@@H]5C[C@H](O)CC[C@]5(C)[C@H]4C[C@H](O)[C@]23C)C(=O)N[C@@H](Cc2cn(CC(=O)Oc3ccccc3)c3ccccc23)C(=O)N1C [Example 2037] ({CH2CO}-Y[NMeA]NP[Dap]([Gly-Cholyl])L[Hyp]W[Dab]([Gly-Cholyl])[X27][NMeNle][NMeNle]LCG-NH2; thioether N-14) | 420

Same assay, conditions: PD-L1-His 10 nM, PD-1-Ig 20 nM; read-out: HTRF IC50

Row | Compound | IC50 [nM]
2 | CCCC[C@H]1C(=O)N(C)[C@@H](CCCC)C(=O)N[C@@H](CC(C)C)C(=O)N[C@H](C(=O)NCC(N)=O)CSCC(=O)N[C@@H](Cc2ccc(O)cc2)C(=O)N(C)[C@@H](C)C(=O)N[C@@H](CC(N)=O)C(=O)N2CCC[C@H]2C(=O)N[C@@H](CNC(=O)CC[C@@H](C)[C@H]2CC[C@H]3[C@@H]4[C@H](O)[C@H](CC)[C@@H]5C[C@H](O)CC[C@]5(C)[C@H]4CC[C@]23C)C(=O)N[C@@H](CC(C)C)C(=O)N2C[C@H](O)C[C@H]2C(=O)N[C@@H](Cc2c[nH]c3ccccc23)C(=O)N[C@@H](CCNC(=O)CC[C@@H](C)[C@H]2CC[C@H]3[C@@H]4[C@H](O)[C@H](CC)[C@@H]5C[C@H](O)CC[C@]5(C)[C@H]4CC[C@]23C)C(=O)N[C@@H](Cc2cn(CC(=O)O)c3ccccc23)C(=O)N1C [Example 1014] ({CH2CO}-Y[NMeA]NP[Dap](X21)L[Hyp]W[Dab](X21)[Trp(1-CH2COOH)][NMeNle][NMeNle]LCG-NH2; thioether N-14) | 340
3 | CCCC[C@H]1C(=O)N(C)[C@@H](CCCC)C(=O)N[C@@H](CC(C)C)C(=O)N[C@H](C(=O)NCC(N)=O)CSCC(=O)N[C@@H](Cc2ccc(O)cc2)C(=O)N(C)[C@@H](C)C(=O)N[C@@H](CC(N)=O)C(=O)N2CCC[C@H]2C(=O)N[C@@H](CNC(=O)CC[C@@H](C)[C@H]2CC[C@H]3[C@@H]4C(=O)[C@H](O)[C@@H]5C[C@H](O)CC[C@]5(C)[C@H]4CC[C@]23C)C(=O)N[C@@H](CC(C)C)C(=O)N2C[C@H](O)C[C@H]2C(=O)N[C@@H](Cc2c[nH]c3ccccc23)C(=O)N[C@@H](CCNC(=O)CC[C@@H](C)[C@H]2CC[C@H]3[C@@H]4[C@H](O)[C@H](O)[C@@H]5C[C@H](O)CC[C@]5(C)[C@H]4CC[C@]23C)C(=O)N[C@@H](Cc2cn(CC(=O)O)c3ccccc23)C(=O)N1C [Example 1015] ({CH2CO}-Y[NMeA]NP[Dap](X23)L[Hyp]W[Dab](X24)[Trp(1-CH2COOH)][NMeNle][NMeNle]LCG-NH2; thioether N-14) | 9.3
4 | CCCC[C@H]1C(=O)N(C)[C@@H](CCCC)C(=O)N[C@@H](CC(C)C)C(=O)N[C@H](C(=O)NCC(N)=O)CSCC(=O)N[C@@H](Cc2ccc(O)cc2)C(=O)N(C)[C@@H](C)C(=O)N[C@@H](CC(N)=O)C(=O)N2CCC[C@H]2CN[C@@H](CNC(=O)CC[C@@H](C)[C@H]2CC[C@H]3[C@@H]4[C@H](O)C[C@@H]5C[C@H](O)CC[C@]5(C)[C@H]4C[C@H](O)[C@]23C)C(=O)N[C@@H](CC(C)C)C(=O)N2C[C@H](O)C[C@H]2C(=O)N[C@@H](Cc2c[nH]c3ccccc23)C(=O)N[C@@H](CCNC(=O)CC[C@@H](C)[C@H]2CC[C@H]3[C@@H]4[C@H](O)C[C@@H]5C[C@H](O)CC[C@]5(C)[C@H]4C[C@H](O)[C@]23C)C(=O)N[C@@H](Cc2cn(CC(=O)OCCO)c3ccccc23)C(=O)N1C [Example 2005] | 210
5 | CCCC[C@H]1C(=O)N(C)[C@@H](CCCC)C(=O)N[C@@H](CC(C)C)C(=O)N[C@H](C(=O)NCC(N)=O)CSCC(=O)N[C@@H](Cc2ccc(O)cc2)C(=O)N(C)[C@@H](C)C(=O)N[C@@H](CC(N)=O)C(=O)N2CCC[C@H]2C(=O)N[C@H]2CNc3c(c(=O)c3=O)NCC[C@H](NC(=O)[C@H](Cc3c[nH]c4ccccc34)NC(=O)[C@@H]3C[C@@H](O)CN3C(=O)[C@H](CC(C)C)NC2=O)C(=O)N[C@@H](Cc2cn(CC(=O)N(CCCCNC(=O)CC[C@@H](C)[C@@H]3CC[C@H]4[C@@H]5[C@H](O)C[C@@H]6C[C@H](O)CC[C@]6(C)[C@H]5C[C@H](O)[C@@]43C)CCCNC(=O)CC[C@@H](C)[C@H]3CC[C@H]4[C@@H]5[C@H](O)C[C@@H]6C[C@H](O)CC[C@]6(C)[C@H]5C[C@H](O)[C@]34C)c3ccccc23)C(=O)N1C [Example 6001] ({CH2CO}-Y[NMeA]NP[Dap]L[Hyp]W[Dab][Trp(1-CH2CO)](X2)[NMeNle][NMeNle]LCG-NH2; linker 5-9 via X12; thioether N-14) | 850
6 | CCCC[C@H]1C(=O)N(C)[C@@H](CCCC)C(=O)N[C@@H](CC(C)C)C(=O)N[C@H](C(=O)NCC(N)=O)CSCC(=O)N[C@@H](Cc2ccc(O)cc2)C(=O)N(C)[C@@H](C)C(=O)N[C@@H](CC(N)=O)C(=O)N2CCC[C@H]2C(=O)N[C@@H](CN[C@H]2CC[C@@]3(C)[C@@H](CC[C@@H]4[C@@H]3CC[C@]3(C)[C@@H]([C@H](C)CCCC(C)C)CC[C@@H]43)C2)C(=O)N[C@@H](CC(C)C)C(=O)N2C[C@H](O)C[C@H]2C(=O)N[C@@H](Cc2c[nH]c3ccccc23)C(=O)N[C@@H](CCN)C(=O)N[C@@H](Cc2cn(CC(=O)O)c3ccccc23)C(=O)N1C [Example 3008] ({CH2CO}-Y[NMeA]NP[X5]L[Hyp]W[Dab][Trp(1-CH2COOH)][NMeNle][NMeNle]LCG-NH2; thioether N-14) | 91
7 | CCCC[C@H]1C(=O)N(C)[C@@H](CCCC)C(=O)N[C@@H](CC(C)C)C(=O)N[C@H](C(=O)NCC(N)=O)CSCC(=O)N[C@@H](Cc2ccc(O)cc2)C(=O)N(C)[C@@H](C)C(=O)N[C@@H](CC(N)=O)C(=O)N2CCC[C@H]2C(=O)N[C@@H](CNC2CC[C@@]3(C)[C@H](CC(=O)[C@@H]4[C@@H]3CC[C@]3(C)[C@@H]([C@H](C)CCC(=O)O)CC[C@@H]43)C2)C(=O)N[C@@H](CC(C)C)C(=O)N2C[C@H](O)C[C@H]2C(=O)N[C@@H](Cc2c[nH]c3ccccc23)C(=O)N[C@@H](CCNC2CC[C@@]3(C)[C@H](CC(=O)[C@@H]4[C@@H]3CC[C@]3(C)[C@@H]([C@H](C)CCC(=O)O)CC[C@@H]43)C2)C(=O)N[C@@H](Cc2cn(CC(=O)O)c3ccccc23)C(=O)N1C (some centres unmarked) [Example 3006] ({CH2CO}-Y[NMeA]NP[X25]L[Hyp]W[X26][Trp(1-CH2COOH)][NMeNle][NMeNle]LCG-NH2; thioether N-14) | 11
8 | CCCC[C@H]1C(=O)N(C)[C@@H](CCCC)C(=O)N[C@@H](CC(C)C)C(=O)N[C@H](C(=O)NCC(N)=O)CSCC(=O)N[C@@H](Cc2ccc(O)cc2)C(=O)N(C)[C@@H](C)C(=O)N[C@@H](CC(N)=O)C(=O)N2CCC[C@H]2CN[C@@H](CNC(=O)CC[C@@H](C)[C@H]2CC[C@H]3[C@@H]4[C@H](O)C[C@@H]5C[C@H](O)CC[C@]5(C)[C@H]4C[C@H](O)[C@]23C)C(=O)N[C@@H](CC(C)C)C(=O)N2C[C@H](O)C[C@H]2C(=O)N[C@@H](Cc2c[nH]c3ccccc23)C(=O)N[C@@H](CCNC(=O)CC[C@@H](C)[C@H]2CC[C@H]3[C@@H]4[C@H](O)C[C@@H]5C[C@H](O)CC[C@]5(C)[C@H]4C[C@H](O)[C@]23C)C(=O)N[C@@H](Cc2cn(CC(=O)OCCCO)c3ccccc23)C(=O)N1C [Example 2004] | 350
